Assay results: BindingDB's records for doi:10.7270/Q2PR7TCX (The Scripps Research Institute Molecular Screening Center, 2007)
Where a name gives a salt, the structure may show the parent alone.

molecular target: Steroidogenic factor 1 (Homo sapiens, UniProt Q13285); assay: SF-1 inhibitors in Gal4 reporter counter-screen, dose response, counter-screen for RORA inhibitor project, cell-based, CHO-K1, Gal4-SF-1 LBD, luciferase luminescence (AID 611); settings: not given
Sequence (Q13285 whole entry, the tested form may be a part): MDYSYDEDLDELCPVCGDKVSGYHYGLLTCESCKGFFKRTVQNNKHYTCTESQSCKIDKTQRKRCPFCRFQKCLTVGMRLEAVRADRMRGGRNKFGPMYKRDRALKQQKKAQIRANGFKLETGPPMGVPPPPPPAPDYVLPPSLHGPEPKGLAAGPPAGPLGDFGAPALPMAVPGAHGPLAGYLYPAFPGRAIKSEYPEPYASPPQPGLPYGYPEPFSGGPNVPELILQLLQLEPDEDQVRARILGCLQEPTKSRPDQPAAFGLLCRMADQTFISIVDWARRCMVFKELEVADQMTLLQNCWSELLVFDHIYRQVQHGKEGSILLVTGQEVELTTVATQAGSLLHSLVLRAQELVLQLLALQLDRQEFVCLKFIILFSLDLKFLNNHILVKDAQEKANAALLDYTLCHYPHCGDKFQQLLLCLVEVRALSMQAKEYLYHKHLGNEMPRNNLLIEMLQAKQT

`COc1ccccc1-c1cc(C(F)(F)F)nc(S(=O)(=O)CCCC(=O)NC(C)C)n1` [4-[4-(2-methoxyphenyl)-6-(trifluoromethyl)pyrimidin-2-yl]sulfonyl-N-propan-2-yl-butanamide] and `COc1ccccc1-n1nnnc1S(=O)(=O)Cc1ccc(Cl)cc1` [5-(4-chlorobenzyl)sulfonyl-1-(2-methoxyphenyl)tetrazole] are within 1.5-fold of each other in IC50: 9.35 µM for the first, 7.09 µM for the second.

First: COc1cccc(N2CCN(c3ncnc4c3[nH]c3ccccc34)CC2C)c1 (stereo not drawn) [4-[4-(3-methoxyphenyl)-3-methyl-1-piperazinyl]-5H-pyrimido[5,4-b]indole]
Second: COc1cccc(N2CCN(c3ncnc4c3[nH]c3ccc(F)cc34)CC2C)c1 (stereo not drawn) [8-fluoranyl-4-[4-(3-methoxyphenyl)-3-methyl-piperazin-1-yl]-5H-pyrimido[5,4-b]indole]
The IC50 of the first is 3.4-fold higher: 4.85 µM for the first, 1.44 µM for the second. The second is the more potent here.

Going from `Clc1ccc(OCCN2CCN(c3ncnc4sccc34)CC2)cc1` [4-[4-[2-(4-chloranylphenoxy)ethyl]piperazin-1-yl]thieno[2,3-d]pyrimidine] to `Oc1c(CN2CCN(c3ccccn3)CC2)cc(Cl)c2cccnc12` [5-chloranyl-7-[(4-pyridin-2-ylpiperazin-1-yl)methyl]quinolin-8-ol], the IC50 rises from 1.44 µM to 6.65 µM (4.6-fold).

First: CCOc1ccc(-c2cc(CCCC(=O)NCCCOC)no2)cc1 [4-[5-(4-ethoxyphenyl)-1,2-oxazol-3-yl]-N-(3-methoxypropyl)butanamide]
Second: CCOc1ccc(-c2cc(CCCC(=O)NCc3ccco3)no2)cc1 [4-[5-(4-ethoxyphenyl)-1,2-oxazol-3-yl]-N-(furan-2-ylmethyl)butanamide]
The IC50 of the first is lower: 2.64 µM for the first, greater than 11 µM for the second. The first is the more potent here.

Going from `CCOC(=O)N1CCC(NC(=O)C2CCCN(Cc3nc(-c4cccc(Cl)c4)oc3C)C2)CC1` (stereo not drawn) [4-[[1-[[2-(3-chlorophenyl)-5-methyl-oxazol-4-yl]methyl]nipecotoyl]amino]piperidine-1-carboxylic acid ethyl ester] to `Cc1ccc(-c2cnc(NC(=O)CCC(=O)N3CCCCC3)n2C)cc1` [4-keto-N-[1-methyl-5-(p-tolyl)imidazol-2-yl]-4-piperidino-butyramide], the IC50 rises from 6.81 µM to greater than 99.1 µM.

Compared with `COc1cc(CN=O)ccc1OCc1ccc(C(=O)O)cc1` [4-[[4-(hydroximinomethyl)-2-methoxy-phenoxy]methyl]benzoic acid], `COc1ccc(C(=O)NC(=O)Nc2cc(C)ccn2)cc1` [4-methoxy-N-[(4-methyl-2-pyridyl)carbamoyl]benzamide] is 4.9-fold higher in IC50: 0.675 µM for the first, 3.29 µM for the second. The first is the more potent here.

`CCN(CC)c1ccc2cc(NC(=O)CCC(=O)O)c(=O)oc2c1` [4-[[7-(diethylamino)-2-keto-chromen-3-yl]amino]-4-keto-butyric acid] and `COc1ccc(C(=O)Nn2c(SCC(=O)NCC3CCCO3)nc3ccccc3c2=O)cc1` (stereo not drawn) [4-methoxy-N-[4-oxidanylidene-2-[2-oxidanylidene-2-(oxolan-2-ylmethylamino)ethyl]sulfanyl-quinazolin-3-yl]benzamide] are within 1.5-fold of each other in IC50: 6.07 µM for the first, 4.51 µM for the second.

Going from `CC(=O)c1c(C)[nH]c(C(=O)OCCCCN2C(=O)c3ccccc3C2=O)c1C` [4-acetyl-3,5-dimethyl-1H-pyrrole-2-carboxylic acid 4-(1,3-dioxo-2-isoindolyl)butyl ester] to `CCOc1ccc(C2=Nn3c(nnc3-c3ccccc3OC)SC2)cc1` [6-(4-ethoxyphenyl)-3-(2-methoxyphenyl)-7H-[1,2,4]triazolo[3,4-b][1,3,4]thiadiazine], the IC50 falls from 5.04 µM to 0.39 µM (13-fold).

First: CCCCOc1ncnc2c1[nH]c1ccc(F)cc12 [4-butoxy-8-fluoranyl-5H-pyrimido[5,4-b]indole]
Second: CCc1ccc(-c2cn3nc(C)c(C)nc3n2)cc1 [6-(4-ethylphenyl)-2,3-dimethyl-imidazo[1,2-b][1,2,4]triazine]
The IC50 of the first is 2.4-fold higher: 4.2 µM for the first, 1.73 µM for the second.

First: Cc1ccccc1NC(=O)c1cnc2ccccn2c1=O [4-keto-N-(o-tolyl)pyrido[1,2-a]pyrimidine-3-carboxamide]
Second: Cc1ccc2nc(-c3ccccc3)cn2c1 [6-methyl-2-phenyl-imidazo[1,2-a]pyridine;hydrobromide]
The IC50 of the first is higher: greater than 11 µM for the first, 1.93 µM for the second.

Going from `CCOc1ccc(OCc2cccc(C(=O)N3CCOCC3)c2)cc1` [4-{3-[(4-ethoxyphenoxy)methyl]benzoyl}morpholine] to `CCOc1ccc(OCc2ccc(C(=O)OCc3ccccn3)o2)cc1` [5-(4-Ethoxy-phenoxymethyl)-furan-2-carboxylic acid pyridin-2-ylmethyl ester], the IC50 rises from 4.35 µM to greater than 11 µM. The first is the more potent here.

First: O=c1cc(-c2c(F)c(F)c(F)c(F)c2F)oc2c(F)c(F)c(F)c(F)c12 [5,6,7,8-tetrafluoro-2-(2,3,4,5,6-pentafluorophenyl)-1-benzopyran-4-one]
Second: Cc1oc(-c2ccc3c(c2)OCCO3)cc1C(=O)O [5-(2,3-dihydro-1,4-benzodioxin-6-yl)-2-methyl-3-furancarboxylic acid]
The IC50 of the first is 1.6-fold higher: 4.81 µM for the first, 3.06 µM for the second. The second is the more potent here.

First: O=C(NC1CC1)c1ccc(-c2nc3ccccc3s2)s1 [5-(1,3-benzothiazol-2-yl)-N-cyclopropyl-2-thiophenecarboxamide]
Second: O=C(Nc1nc(-c2ccccn2)cs1)c1ccc(Cl)s1 [5-chloranyl-N-(4-pyridin-2-yl-1,3-thiazol-2-yl)thiophene-2-carboxamide]
The IC50 of the first is 2.4-fold higher: 9.53 µM for the first, 4 µM for the second. The second is the more potent here.

`COc1ccc(-c2nc(-c3ccccc3)no2)c(OC)c1` [5-(2,4-dimethoxyphenyl)-3-phenyl-1,2,4-oxadiazole] and `Cc1ccc(-c2nc(-c3ccccc3)no2)c(Cl)c1` [5-(2-chloranyl-4-methyl-phenyl)-3-phenyl-1,2,4-oxadiazole] are within 1.5-fold of each other in IC50: 2.82 µM for the first, 3.34 µM for the second.

Compared with `Cc1ccc(-c2nc(-c3ccccn3)no2)cc1Cl` [5-(3-chloranyl-4-methyl-phenyl)-3-pyridin-2-yl-1,2,4-oxadiazole], `Cc1ccc(-c2nc(-c3ccccn3)no2)cc1` [5-(4-methylphenyl)-3-(2-pyridinyl)-1,2,4-oxadiazole] is 2.1-fold lower in IC50: 2.22 µM for the first, 1.05 µM for the second. The second is the more potent here.

`Fc1ccc(-c2nnc(NC3=NCCCCC3)o2)cc1` [5-(4-fluorophenyl)-N-(3,4,5,6-tetrahydro-2H-azepin-7-yl)-1,3,4-oxadiazol-2-amine] and `Cc1ccc(-c2nnc(Nc3ccccc3)o2)cc1` [5-(4-methylphenyl)-N-phenyl-1,3,4-oxadiazol-2-amine] cannot be ordered by IC50: greater than 3.67 µM for the first, greater than 3.67 µM for the second.

`Oc1c(CN2CCOCC2)cc(COCc2ccccc2)c2cccnc12` [5-(benzoxymethyl)-7-(morpholinomethyl)quinolin-8-ol] and `Oc1c(CN2CCCCC2)cc(COCc2ccccc2)c2cccnc12` [5-(benzoxymethyl)-7-(piperidinomethyl)quinolin-8-ol] are within 1.5-fold of each other in IC50: 5.97 µM for the first, 7.58 µM for the second.

Compared with `NCCCCCc1nnc(SCc2ccccc2Cl)o1` [5-[5-[(2-chlorobenzyl)thio]-1,3,4-oxadiazol-2-yl]pentylamine;hydrochloride], `O=S1(=O)Nc2c(ccc3cccnc23)-c2ccccc21` [5H-quinolino[8,7-c][1,2]benzothiazine 6,6-dioxide] is lower in IC50: greater than 99 µM for the first, 4.43 µM for the second. The second is the more potent here.

`O=S(=O)(NCc1ccncc1)c1ccc(Br)s1` [5-bromanyl-N-(pyridin-4-ylmethyl)thiophene-2-sulfonamide] and `Cc1ccc(S(=O)(=O)Nc2cccc3ncccc23)s1` [5-methyl-N-quinolin-5-ylthiophene-2-sulfonamide] are within 1.5-fold of each other in IC50: 3.74 µM for the first, 5.33 µM for the second.

`O=S(=O)(c1ccccc1)N1CCN(c2cc(-c3ccccc3)nc3ncnn23)CC1` [5-phenyl-7-[4-(phenylsulfonyl)piperazin-1-yl]-[1,2,4]triazolo[1,5-a]pyrimidine] and `C[S+]([O-])c1nc(-c2ccc(Br)cc2)cc(-c2ccccc2)c1C#N` (stereo not drawn) [6-(4-bromophenyl)-2-(methylsulfinyl)-4-phenylnicotinonitrile] are within 1.5-fold of each other in IC50: 8.96 µM for the first, 8.07 µM for the second.

Going from `Cn1nc(C(C)(C)C)cc1C(=O)NCc1ccc(N2CCCC2=O)cc1` [5-tert-Butyl-2-methyl-2H-pyrazole-3-carboxylic acid 4-(2-oxo-pyrrolidin-1-yl)-benzylamide] to `COC(=O)C1C(=CN2CCCc3ccccc32)NC(=O)NC1c1ccc(F)cc1` (stereo not drawn) [6-(3,4-dihydro-2H-quinolin-1-ylmethyl)-4-(4-fluorophenyl)-2-keto-3,4-dihydro-1H-pyrimidine-5-carboxylic acid methyl ester], the IC50 rises from 3.18 µM to 6.66 µM (2.1-fold). The first is the more potent here.

Compared with `C[C@@]1(CO)[C@H](O)CC[C@@]2(C)[C@H]1CC[C@H]1C[C@@H]3C[C@@]12CC[C@]3(O)CO` [6,13-di(hydroxymethyl)-2,6-dimethyl-(1S,2S,5R,6R,7R,10S,12R,13R)-tetracyclo[10.3.1.01,10.02,7]hexadecane-5,13-diol (Aphidicolin)], `O=C(O)CCCCCn1c(O)csc1=S` [6-(4-keto-2-thioxo-thiazolidin-3-yl)hexanoic acid] is higher in IC50: 0.519 µM for the first, greater than 99 µM for the second.

Going from `CC(C)Cn1c(N)c(C(=O)CSc2ccc3c(c2)OCCO3)c(=O)n(C)c1=O` [6-amino-5-[2-(2,3-dihydro-1,4-benzodioxin-6-ylsulfanyl)acetyl]-3-methyl-1-(2-methylpropyl)pyrimidine-2,4-dione] to `C=CCOc1nc2c(c(=O)n(C)c(=O)n2C)n1Cc1ccc(Cl)cc1Cl` [7-[(2,4-dichlorophenyl)methyl]-1,3-dimethyl-8-prop-2-enoxy-purine-2,6-dione], the IC50 rises from 5.29 µM to greater than 33 µM. The first is the more potent here.

`Cc1ccc(Nc2cc(C)nn2-c2nc(C)cc(O)n2)cc1` [6-methyl-2-[3-methyl-5-(4-methylanilino)pyrazol-1-yl]-1H-pyrimidin-4-one] and `Cn1c(-c2ccccc2)cc2c3no[n+]([O-])c3ccc21` [6-methyl-3-oxidanidyl-7-phenyl-pyrrolo[2,3-g][2,1,3]benzoxadiazol-3-ium] are within 1.5-fold of each other in IC50: 4.15 µM for the first, 6.06 µM for the second.

Going from `COc1cccc(-c2nnc3n2N=C(C(C)(C)C)CS3)c1` [6-tert-butyl-3-(3-methoxyphenyl)-7H-[1,2,4]triazolo[3,4-b][1,3,4]thiadiazine] to `C=CCOc1nc2c(c(=O)n(C)c(=O)n2C)n1Cc1ccc(Cl)cc1` [7-[(4-chlorophenyl)methyl]-1,3-dimethyl-8-prop-2-enoxy-purine-2,6-dione], the IC50 rises from 7.59 µM to greater than 11 µM.

same assay, conditions: inactive by the depositor's call

In order of rising IC50:
1. COc1cccc(Cn2c(NCc3ccco3)nc3c2c(=O)n(C)c(=O)n3C)c1 [8-(2-furanylmethylamino)-7-[(3-methoxyphenyl)methyl]-1,3-dimethylpurine-2,6-dione]  10.7 µM
2. Cc1ccc2nc(C(F)(F)F)c(C#N)c(N)c2c1 [4-amino-6-methyl-2-(trifluoromethyl)-3-quinolinecarbonitrile]  11.6 µM
3. Cc1ccc(S(=O)(=O)Nc2ccc3ncccc3c2)cc1 [4-methyl-N-(6-quinolinyl)benzenesulfonamide]  12.4 µM
